Results published in US20230149558A1, “DUOCARMYCIN DERIVATIVE AND USE THEREOF” (The University of Tokyo, priority 2020, published 2023).

System: HeLa S3 cells
Experiment: Cytotoxicity of Duocarmycin SA and Duocarmycin SA-Valine (Cell Counting Kit-8)
Assay type: cell-based
Conditions: 1.0E-11 to 6.0E-07, 48 hours, FIG. 11
Description: In order to confirm the activities of Compound X (Duocarmycin SA) and Compound Y (Duocarmycin SA-Valin) shown in FIG. 9 and FIG. 10, cytotoxicity was confirmed using HeLa S3 cells.
The cells were seeded on a 96-well plate for cell culture, so that the cell count became 5×10^3 cells/well and the amount of the culture solution became 50 μL/well, and thereafter, the cells were cultured overnight. The concentration of Compound X or Compound Y was adjusted with a culture solution, so that the final concentration thereof became 600 nM. […]
The medium used in the overnight culture of the cells was exchanged with the prepared agent-diluted solution, and the cells were then cultured for 48 hours. […] The dosage and administration applied in the assay were determined in accordance with the instruction manuals included with the kit, and after addition of the reagent, the mixture was incubated for 1.5 hours at 37° C., in a CO2 incubator. Thereafter, the absorbance at 450 nm was measured, and a mean value was then calculated, followed by background collection. The control was set to be 100%, and the ratio of the cell growth under each condition to the control was calculated. […]

## Duocarmycin SA-Valine
  effect of suppressing cell growth (ratio of cell growth to control): higher effect of suppressing cell growth than Duocarmycin SA
